According to ChEMBL document CHEMBL1133334, “Synthesis and pharmacology of new enantiopure delta(3)-4-arylkainoids” (Bioorg Med Chem Lett, 2000):

Molecular target: Glutamate NMDA receptor
Assay: Compound was tested for agonistic activity at the N-methyl-D-aspartate glutamate receptor obtained from the rat cortical wedge preparation
Assay type: functional
Details: read-out: KD app

| Structure (SMILES) | Kd [µM] |
| --- | --- |
| O=C(O)CC1=C(c2ccccc2)CN[C@@H]1C(=O)O | 560 |
| O=C(O)CC1=C(c2ccoc2)CN[C@@H]1C(=O)O | 85 |
| O=C(O)CC1=C(c2cccs2)CN[C@@H]1C(=O)O | 20 |
| COc1ccccc1C1=C(CC(=O)O)[C@@H](C(=O)O)NC1 | 380 |
| O=C(O)CC1=C(c2ccsc2)CN[C@@H]1C(=O)O | 45 |
| O=C(O)CC1=C(c2ccc3ccccc3c2)CN[C@@H]1C(=O)O | 250 |
| O=C(O)CC1=C(c2ccco2)CN[C@@H]1C(=O)O | 70 |
